Source: PMC7318222, “A Family of Water‐Immiscible, Dipolar Aprotic, Diamide Solvents from Succinic Acid” (Chemsuschem, 2020)

Biological target: T1, PPARα (Homo sapiens, UniProt Q07869)
T1 construct: expression construct for the full-length human receptor under investigation; expressed in transfected cells; host or cells: human U2-OS cells (ATCC HTB-96), stably transfected
T1 sequence (Q07869 1-468): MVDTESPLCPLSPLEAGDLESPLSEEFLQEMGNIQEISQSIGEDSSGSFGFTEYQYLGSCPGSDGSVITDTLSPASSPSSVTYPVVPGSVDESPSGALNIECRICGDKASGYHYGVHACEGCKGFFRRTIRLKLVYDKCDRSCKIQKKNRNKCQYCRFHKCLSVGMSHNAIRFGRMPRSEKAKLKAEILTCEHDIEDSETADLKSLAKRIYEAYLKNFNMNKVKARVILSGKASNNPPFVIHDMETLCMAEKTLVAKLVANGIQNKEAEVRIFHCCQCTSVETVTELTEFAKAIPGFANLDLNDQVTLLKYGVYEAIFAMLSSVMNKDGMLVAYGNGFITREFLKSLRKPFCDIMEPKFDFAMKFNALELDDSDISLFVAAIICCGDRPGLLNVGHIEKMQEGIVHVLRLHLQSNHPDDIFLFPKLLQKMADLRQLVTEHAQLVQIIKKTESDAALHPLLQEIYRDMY
Assay: PPARα CALUX reporter gene assay
Type: cell-based
Design: key: –: no effect observed up to the highest test concentration
Conditions: PC10, 24 h exposure
Text: Succinyl chloride (2 M soln. in dichloromethane), N-methylbutylamine 90%, N-ethylbutylamine 95%, Dibutylamine 99% were purchased from TCI chemicals. K60 silica was purchased from Merck chemicals. Succinic acid ≥99.0%, N-methylpyrrolidinone 99.0%, 1-bromooctane ≥97.0%, 1-methylimidazole 99.0%, iodobenzene 99.9%, methylacrylate 99.9%, palladium(II) acetate ≥99.9% trace metals basis, triethylamine ≥99.0%, trimesic acid 95%, copper(II) nitrate trihydrate ≥99.0%, 2-methylimidazole 99.0%, zinc(II) nitrate hexahydrate ≥99.0%, para-cymene 99.0%, 1,4-dioxane 99.8% (anhydrous), 4-nitroaniline ≥99.0%, 1-octanol ≥99.0%, diglyme ≥99.0%, DMSO-d6 (99.8% D) and chloroform-d (99.8% D) were purchased from Sigma-Aldrich. Toluene ≥99.0%, hexane ≥99.5%, DCM ≥99.5%, chloroform ≥99.5%, DMSO ≥99.0% were purchased from VWR. N,N-diethyl-4-nitroaniline ≥98.0% was purchased from Alfa Aeser. Cyrene was supplied by Circa group. N-butylpyrrolidinone was supplied by Eastman chemicals. N,N-dimethylformamide 99.9% and N,N-dimethylacetamide 99.9% were purchased from Fischer. The flakes of Ultrason® E3020 P Polyarylethersulfone of 55,000 Da were obtained from INGE.BASF, Germany. The CALUX cell lines have been described previously.[1] They are based on human U2-OS cells (ATCC, HTB-96) stably transfected with an expression construct for the full-length human receptor under investigation, and a reporter construct consisting of multimerized responsive elements for the cognate receptor coupled to a minimal promoter element (TATA) and a luciferase gene. Cells were maintained as described previously,[2] using cell culture media and supplements from Fisher Scientific as described in the experimental procedures section. […]
In vitro reporter gene assays
The automated CALUX assays were carried out similarly as described earlier,[12] with some adaptations. In brief, the assay was performed in CO2 independent medium (Fisher Scientific, […]
supplement (Fisher Scientific, 11574466), 10 U/mL penicillin and 10 µg/mL streptomycin. A cell suspension in assay medium was made of 1 × 10^5cells/mL, and white 384-wells plates were seeded with 30 µl cell suspension/well. After 24 h, exposure medium was prepared. A dilution series in 0.5log unit increments of each test compound (in DMSO) was added to a 96-wells plate containing assay medium (2% v/v). Of this exposure mixture, 30 µl was added to the assay plates containing the CALUX cells, resulting in a final DMSO concentration of 1%. Additionally, DMSO blanks and a full dose response curve of the relevant reference compound were included on each plate. All samples were tested in triplicate. The preparation of the compound dilution series as well as the exposure of the cells were performed on a Hamilton StarLET liquid handling robot coupled to a Cytomat incubator.
Directly after exposure, plates were sealed with non-breathing plate seals (Plate sealer, easy seal transparent; Greiner-Bio-One, 676001). After 24 h the exposure medium was removed using an EL406 washer-dispenser (BioTek) and 10 µl/well triton lysisbuffer was added by the EL406.
Subsequently, the luciferase signal was measured in a luminometer (InfinitePro coupled to a Connect Stacker, both TECAN). In order to be able to detect receptor antagonism, several assays were also performed in antagonistic mode. […]
The luminometer data was analysed as follows; the average of the triplicate wells was determined, and the average blank (DMSO) value was subtracted. […]

| LEC PPARα | SMILES |
| --- | --- |
| – | CCCCN(CC)C(=O)CCC(=O)N(CC)CCCC [EBSA, N,N′‐diethyl‐N,N′‐dibutylsuccindiamide] |
| – | CCCCN(C)C(=O)CCC(=O)N(C)CCCC [MBSA, N,N′‐dimethyl‐N,N′‐dibutylsuccindiamide] |
| – | CCCCN1CCCC1=O [NBP, N‐Butylpyrrolidinone, reference compound] |
| – | CN1CCCC1=O [NMP, N‐methyl‐2‐pyrrolidone, reference compound] |
| – | CCCCN(CCCC)C(=O)CCC(=O)N(CCCC)CCCC [TBSA, N,N,N′,N′‐tetrabutylsuccindiamide] |
